# From ChEMBL document CHEMBL1150670, “Anti-HIV agents derived from the ent-kaurane diterpenoid linearol” (J Nat Prod, 2002)
# Active and inactive are the calls of the source. The calls are words filed in the database; no cut-off is given here.
# Columns and labels:
# [1] = tested on: H9; assay: Cytotoxicity against human H9 cells by Coulter counting analysis; type: cell-based
# [2] = tested on: Human immunodeficiency virus 1; assay: Antiviral activity against HIV1 3B replication in human H9 cells assessed as inhibition of p24 antigen production after 4 days by ELISA; type: functional, organism-based; settings: for EC50: Human immunodeficiency virus 1, 3B, H9, 96 h
# [3] = Therapeutic index, ratio of IC50 for human H9 cells to EC50 for HIV1 3B replication in human H9 cells; type: cell-based; settings: read-out: Ratio IC50/EC50
EC50 [2],Structure (SMILES),IC50 [1],Activity [2],selectivity ratio [3]
–,C=C1C[C@@]23C[C@@H]1CC[C@H]2[C@]1(C)CC[C@@H](OC(=O)c2ccc4c(c2)OCO4)[C@](C)(COC(C)=O)[C@@H]1C[C@@H]3O,5.3 µg/mL,inactive,–
–,C=C1C[C@@]23C[C@@H]1CC[C@H]2[C@]1(C)CC[C@@H](OC(=O)c2ccccc2OC)[C@](C)(COC(C)=O)[C@@H]1C[C@@H]3O,5.4 µg/mL,inactive,–
–,C=C1C[C@@]23C[C@@H]1CC[C@H]2[C@]1(C)CC[C@@H](OC(=O)c2ccc(SC)cc2)[C@](C)(COC(C)=O)[C@@H]1C[C@@H]3O,5.3 µg/mL,inactive,–
–,C=C1C[C@@]23C[C@@H]1CC[C@H]2[C@]1(C)CC[C@@H](OC(=O)CC)[C@](C)(COC(C)=O)[C@@H]1C[C@@H]3O,22.2 µg/mL,inactive,–
–,C=C1C[C@@]23C[C@@H]1CC[C@H]2[C@]1(C)CC[C@@H](OC(=O)c2ccccc2OC)[C@](C)(COC(C)=O)[C@@H]1C[C@@H]3OC(=O)c1ccccc1OC,6 µg/mL,inactive,–
–,C=C1C[C@@]23C[C@@H]1CC[C@H]2[C@]1(C)CC[C@@H](OC(=O)c2ccccc2)[C@](C)(COC(C)=O)[C@@H]1C[C@@H]3O,1.8 µg/mL,inactive,–
< 0.1 µg/mL,C=C1C[C@@]23C[C@@H]1CC[C@H]2[C@]1(C)CC[C@@H](OC(=O)c2ccc(OC)cc2)[C@](C)(COC(C)=O)[C@@H]1C[C@@H]3OC(=O)c1ccc(OC)cc1,1.9 µg/mL,–,> 19.2
–,C=C1C[C@@]23C[C@@H]1CC[C@H]2[C@]1(C)CC[C@@H](OC(=O)c2ccc(Cl)cc2)[C@](C)(COC(C)=O)[C@@H]1C[C@@H]3O,54 µg/mL,inactive,–
–,C=C1C[C@@]23C[C@@H]1CC[C@H]2[C@]1(C)CC[C@@H](OC(=O)c2cccc([N+](=O)[O-])c2)[C@](C)(COC(C)=O)[C@@H]1C[C@@H]3OC(=O)c1cccc([N+](=O)[O-])c1,21.4 µg/mL,inactive,–
–,C=C1C[C@@]23C[C@@H]1CC[C@H]2[C@]1(C)CC[C@@H](OC(=O)c2ccc(SC)cc2)[C@](C)(COC(C)=O)[C@@H]1C[C@@H]3OC(=O)c1ccc(SC)cc1,59.8 µg/mL,inactive,–
–,C=C1C[C@@]23C[C@@H]1CC[C@H]2[C@]1(C)CC[C@@H](OC(=O)c2ccc(F)cc2)[C@](C)(COC(C)=O)[C@@H]1C[C@@H]3OC(=O)c1ccc(F)cc1,41.1 µg/mL,inactive,–
–,C=C1C[C@@]23C[C@@H]1CC[C@H]2[C@]1(C)CC[C@@H](OC(=O)c2ccc(C#N)cc2)[C@](C)(COC(C)=O)[C@@H]1C[C@@H]3OC(=O)c1ccc(C#N)cc1,> 100 µg/mL,inactive,–
2.63 µg/mL,C=C1C[C@@]23C[C@@H]1CC[C@H]2[C@]1(C)CC[C@@H](OC(=O)CC)[C@](C)(COC(C)=O)[C@@H]1C[C@@H]3OC(=O)CC,16 µg/mL,–,6.1
0.13 µg/mL,CC(=O)OC[C@]1(C)[C@@H]2C[C@H](OC(C)=O)[C@]34C[C@H](CC[C@H]3[C@]2(C)CC[C@H]1OC(C)=O)[C@@]1(CO1)C4,20.6 µg/mL,–,163
–,CC(=O)OC[C@]1(C)[C@@H]2C[C@H](O)[C@@]34CC(=O)[C@@H](CC[C@H]3[C@]2(C)CC[C@H]1O)C4,> 100 µg/mL,inactive,–
–,C=C1C[C@@]23C[C@@H]1CC[C@H]2[C@]1(C)CC[C@@H](OC(=O)c2ccc(F)cc2)[C@](C)(COC(C)=O)[C@@H]1C[C@@H]3O,57.7 µg/mL,inactive,–
3.11 µg/mL,C=C1C[C@@]23C[C@@H]1CC[C@H]2[C@]1(C)CC[C@@H](OC(=O)c2ccco2)[C@](C)(COC(C)=O)[C@@H]1C[C@@H]3OC(=O)c1ccco1,10.8 µg/mL,–,3.49
–,C=C1C[C@@]23C[C@@H]1CC[C@H]2[C@]1(C)CC[C@@H](O)[C@](C)(COC(C)=O)[C@@H]1C[C@@H]3O [LINEAROL],56.5 µg/mL,inactive,–
0.27 µg/mL,C=C1C[C@@]23C[C@@H]1CC[C@H]2[C@]1(C)CC[C@@H](OC(=O)c2ccc4c(c2)OCO4)[C@](C)(COC(C)=O)[C@@H]1C[C@@H]3OC(=O)c1ccc2c(c1)OCO2,50.6 µg/mL,–,184
–,CC(=O)O[C@@H]1CC[C@]2(C)[C@@H](C[C@H](O)[C@]34C[C@H](CC[C@@H]23)[C@@]2(CO2)C4)[C@@]1(C)CO,> 100 µg/mL,inactive,–
–,CC(=O)OC[C@]1(C)[C@@H]2C[C@H](O)[C@]34C[C@H](CC[C@H]3[C@]2(C)CC[C@H]1O)[C@@]1(CO1)C4,> 100 µg/mL,–,–
–,C=C1C[C@@]23C[C@@H]1CC[C@H]2[C@]1(C)CC[C@@H](OC(=O)c2cnccn2)[C@](C)(COC(C)=O)[C@@H]1C[C@@H]3OC(=O)c1cnccn1,5.6 µg/mL,inactive,–
–,C=C1C[C@@]23C[C@@H]1CC[C@H]2[C@]1(C)CC[C@@H](OC(=O)c2ccc(OC)cc2)[C@](C)(COC(C)=O)[C@@H]1C[C@@H]3O,2 µg/mL,inactive,–
–,C=C1C[C@@]23C[C@@H]1CC[C@H]2[C@]1(C)CC[C@@H](OC(=O)c2ccc([N+](=O)[O-])cc2)[C@](C)(COC(C)=O)[C@@H]1C[C@@H]3OC(=O)c1ccc([N+](=O)[O-])cc1,> 100 µg/mL,inactive,–
–,C=C1C[C@@]23C[C@@H]1CC[C@H]2[C@]1(C)CC[C@@H](OC(=O)c2ccc(Cl)cc2)[C@](C)(COC(C)=O)[C@@H]1C[C@@H]3OC(=O)c1ccc(Cl)cc1,60.1 µg/mL,inactive,–
–,C=C1C[C@@]23C[C@@H]1CC[C@H]2[C@]1(C)CC[C@@H](OC(=O)c2ccccc2)[C@](C)(COC(C)=O)[C@@H]1C[C@@H]3OC(=O)c1ccccc1,2.2 µg/mL,inactive,–
1.05 µg/mL,C=C1C[C@@]23C[C@@H]1CC[C@H]2[C@]1(C)CC[C@@H](OC(=O)c2ccc(C)cc2)[C@](C)(COC(C)=O)[C@@H]1C[C@@H]3OC(=O)c1ccc(C)cc1,52.5 µg/mL,–,50.1
